Laboratory results from patent US3994890A, “1-Aminoalkyl, 3-phenyl indazoles” (Chugai Seiyaku Kabushiki Kaisha, priority 1974, dated 1976).
Counter-ions that a name gives are not always drawn. Like-named read-outs stand apart in the source and are kept apart here.

Columns and labels:
[1] = test system: hexobarbital-treated ddY Strain male mice; experiment: Barbiturate potentiation (duration of loss of righting reflex due to hexobarbital); format: in vivo, mouse (ddY Strain); details: 0.5 h, read-out: Barbiturate potentiation (ratio with control groups)
Description: ddY Strain male mice (4 - 5 weeks old, body weight 23 - 28 g) in groups of 5 mice each were orally treated with 100 mg/kg of samples and 30 minutes after the oral administration the mice were intraperitoneally treated with 100 mg/kg of hexobarbital. Duration of loss of righting reflex due to hexobarbital was determined and barbiturate potentiation ratios with control groups were calculated. Imipramine, desipramine and diazepam were used as control drugs.

[2] = test system: Wistar-Imamichi strain rats; experiment: Subacute toxicity (30 days; oral administration), rat; format: in vivo, rat (Wistar-Imamichi strain)
Source text: (§1) ddY Strain mice and Wistar-Imamichi strain rats were used to inspect acute toxicity and subacute toxicity (30 days; oral administration) of a compound of the formula [I].

[3] = test system: ddY Strain mice; experiment: Acute toxicity, mouse; format: in vivo; details: p.o.
Source text: as §1

[4] = Acute toxicity, mouse; format: in vivo; details: in vivo, po
Source text: as §1

[5] = Acute toxicity, rat; details: in vivo, po
Source text: as §1

[6] = test system: hexobarbital-treated ddY Strain male mice; experiment: Barbiturate potentiation (duration of loss of righting reflex due to hexobarbital); format: in vivo, mouse (ddY Strain); details: Mus musculus, po, 0.5 h, read-out: Barbiturate potentiation (ratio with control groups)
[7] = mouse, 100 mg/kg oral, 30 minutes before 100 mg/kg i.p. hexobarbital, loss of righting reflex duration
[8] = 30 days oral, at a dose of 50 mg/kg

Compound	response vs control in vivo at 100 mg/kg [1, 7] [%]	also measured
CN(C)CCn1nc(-c2ccccc2)c2ccccc21 [Example 1, 1-dimethylaminoethyl-3-phenylindazole hydrochloride]	300	
CN(C)CCn1nc(-c2ccccc2)c2cc(Cl)ccc21 [Example 2, 1-dimethylaminoethyl-3-phenyl-5-chloroindazole hydrochloride]	150	
Cc1ccc2c(c1)c(-c1ccccc1)nn2CCN(C)C [Example 3, 1-dimethylaminoethyl-3-phenyl-5-methylindazole hydrochloride]	150	
CCN(CC)CCn1nc(-c2ccccc2)c2cc(Cl)ccc21 [Example 4, 1-diethylaminoethyl-3-phenyl-5-chloroindazole hydrochloride]	120	
CCN(CC)CCn1nc(-c2ccccc2)c2ccccc21 [Example 6, 1-diethylaminoethyl-3-phenylindazole hydrochloride]	290	
CN(C)CCCn1nc(-c2ccccc2)c2ccccc21 [Example 7, 1-dimethylaminopropyl-3-phenylindazole hydrochloride]	190	
CN(C)CCCn1nc(-c2ccccc2)c2cc(Cl)ccc21 [Example 8, 1-dimethylaminopropyl-3-phenyl-5-chloroindazole hydrochloride]	130	
Cc1ccc2c(c1)c(-c1ccccc1)nn2CCCN(C)C [Example 10, 1-dimethylaminopropyl-3-phenyl-5-methylindazole]	100	Subacute toxicity: fatality ([2]; 30 days oral, at a dose of 100 mg/kg): not fatal; Subacute toxicity: symptoms ([2]; in vivo, po, 100 mg/kg): no abnormal symptom; LD50 [3]: 660 mg/kg; LD50 [4]: 580 mg/kg; LD50 [5]: 3000 to 5000 mg/kg
c1ccc(-c2nn(CCCN3CCCCC3)c3ccccc23)cc1 [Example 11, 1-piperidinopropyl-3-phenylindazole hydrochloride]	130	
Cc1ccc2c(c1)c(-c1ccccc1)nn2CCCN1CCCCC1 [Example 12, 1-piperidinopropyl-3-phenyl-5-methylindazole hydrochloride]	100	
Clc1ccc2c(c1)c(-c1ccccc1)nn2CCN1CCOCC1 [Example 14, 1-morpholinoethyl-3-phenyl-5-chloroindazole hydrochloride]	170	
Cc1ccc2c(c1)c(-c1ccccc1)nn2CCCN1CCOCC1 [Example 15, 1-morpholinopropyl-3-phenyl-5-methylindazole hydrochloride]	140	
Cc1ccc2c(c1)c(-c1ccccc1)nn2CCCN1CCN(C)CC1 [Example 17, 1-N-methylpiperazinopropyl-3-phenyl-5-methylindazole hydrochloride]	100	
Clc1ccc2c(c1)c(-c1ccccc1)nn2CN1CCOCC1 [Example 19, 1-morpholinomethyl-3-phenyl-5-chloroindazole]	120	
Cc1ccc2c(c1)c(-c1ccccc1)nn2CN1CCCC1 [Example 20, 1-pyrrolidinomethyl-3-phenyl-5-methylindazole hydrochloride]	160	
c1ccc(-c2nn(CN3CCOCC3)c3ccccc23)cc1 [Example 23, 1-morpholinomethyl-3-phenylindazole]	130	
O=C1c2ccccc2C(=O)N1CCCn1nc(-c2ccccc2)c2cc(Cl)ccc21 [Example 25, 1-phthalimidopropyl-3-phenyl-5-chloroindazole]	110	
CNCCCn1nc(-c2ccccc2)c2cc(C)ccc21 [Example 29, 1-N-monomethylaminopropyl-3-phenyl-5-methylindazole hydrochloride]	170	
Cc1ccc2c(c1)c(-c1ccccc1)nn2CCCN [Example 34, 1-aminopropyl-3-phenyl-5-methylindazole]	250	
CNCCCN1c2ccccc2CCc2ccccc21 [desipramine, reference compound]		response vs control in vivo at 100 mg/kg ([1]; Mus musculus, po): 150%
CN1C(=O)CN=C(c2ccccc2)c2cc(Cl)ccc21 [diazepam]		response vs control in vivo at 5 mg/kg [6]: 230%
CN(C)CCCN1c2ccccc2CCc2ccccc21 [imipramine]		Subacute toxicity: blood urine nitrogen [2, 8]: reduced; Subacute toxicity: fatality [2, 8]: not fatal; Subacute toxicity: hemoglobin [2, 8]: reduced; response vs control in vivo at 100 mg/kg ([1]; Mus musculus, po): 130%
